Test results taken from patent US20130065959A1, “SANITIZING MEAT WITH PERACID AND 2-HYDROXY ORGANIC ACID COMPOSITIONS” (Fresh Express Incorporated, priority 2009, published 2013).

How the values were obtained:
[1] = system: indigenous microorganisms; test: Reduction of indigenous microorganisms on Romaine, Aerobic Plate Counts, commercial scale test (Example 5); format: cell-based; settings: 73-84 ppm peroxyacetic acid, no lactic acid
Method: (§1) Example 5. These experiments evaluated the consumption or depletion of peroxyacetic acid when used to wash produce.
(§2) Treatments: chlorinated water, peroxyacetic acid wash water, and FE sanitizer wash water
(§3) Temperature: 38 to 40° F.
(§4) Produce: 1.5″×2″ diced Romaine lettuce
A. Determination of the amount of Romaine Lettuce that could deplete 600 gallons of peroxyacetic acid wash water. • 1. Perform full sanitization on the Pilot Line System. • 2. Fill the 2nd flume tank, 2nd reservoir, and 2nd filtering tank with tap water. • 3. Recycle the water through the system until the water in the system is being cooled down to 40° F. • 4. Calibrate the Prominent System and use the Prominent System to monitor the concentration of PAA in the wash water. • 5. Add the PAA to the 2nd filtering tank until the target processing limit is reached. • 6. Dice the Romaine Lettuce via the translicer. • 7. Collect the 2″×2″ diced Romaine in totes. • 8. Record the weight of each tote prior to transferring it to the 2nd flume. • 9. Collect three untreated bags of Romaine Lettuce from each bin (1 top, 1 middle, and 1 bottom). • 10. Collect three treated bags of Romaine Lettuce at the end of F2 (1 beginning, 1 middle, and 1 end of the bin). • 11. Place white totes at the bottom of the locations with water spill. Return the spilt water back into the flume tank as needed. • 12. […]

[2] = Depletion of sanitizer wash water by diced Romaine, commercial scale test (Example 5); format: physicochemical; settings: 38 to 40 F; for PA (ppm) / Peroxide (ppm): 600 gallons, LA 0 ppm
Method: as §1, §2, §3, §4
A. Determination of the amount of Romaine Lettuce that could deplete 600 gallons of peroxyacetic acid wash water. • 1. Perform full sanitization on the Pilot Line System. • 2. Fill the 2nd flume tank, 2nd reservoir, and 2nd filtering tank with tap water. • 3. Recycle the water through the system until the water in the system is being cooled down to 40° F. • 4. Calibrate the Prominent System and use the Prominent System to monitor the concentration of PAA in the wash water. • 5. Add the PAA to the 2nd filtering tank until the target processing limit is reached. • 6. Dice the Romaine Lettuce via the translicer. • 7. Collect the 2″×2″ diced Romaine in totes. • 8. Record the weight of each tote prior to transferring it to the 2nd flume. • 9. Collect three untreated bags of Romaine Lettuce from each bin (1 top, 1 middle, and 1 bottom). • 10. Collect three treated bags of Romaine Lettuce at the end of F2 (1 beginning, 1 middle, and 1 end of the bin). • 11. Place white totes at the bottom of the locations with water spill. Return the spilt water back into the flume tank as needed. • 12. Place white totes at the bottom outlets of the centrifuge to collect liquid that would be spin off from the leaves. Return the collected water back into the flume tank as needed. • 13. Repeat Steps ‘e’ to ‘k’ for the rest of the bins till the FE concentrations fall below the lowest processing limits. • 14. Enumerate the microbial population (APC and Yeast and mold) on the collected samples. B. Determination of the amount of Romaine Lettuce that could deplete 600 gallons of FE wash water • 1. Perform full sanitization on the Pilot Line System. • 2. Fill the 1st flume tank, 2nd flume tank, 1st reservoir, 2nd reservoir, 1^stfiltering tank, and 2nd filtering tank with tap water. • 3. Recycle the water through the system until the water in the system is being cooled down to 40° F. • 4. Switch on the by-passes for the 1st and 2nd flume tank systems so that water would not be going through the filtering systems but only recycling from the flume tank to its associate reservoir continuously. • 5. Add the chemical ingredients to both tank until the target processing limit is reached. • 6. Verify the concentration of FE by the probe of the Prominent Monitoring System at the 1st flume tank (F1), 1st Reservoir (R1), 2nd Flume tank (F2), and the 2nd Reservoir (R2). • 7. Collect water samples from F1 and F2. • 8. Assemble the Romaine Lettuce Bins next to the dumpster. • 9. Transfer whole Romaine Lettuce leaves from the bin to the conveyor. • 10. Ensure that the lid above the F1 is closed. Turn the “ON/OFF” switch of the translicer to “ON”. • 11. Turn the conveyor for transferring leaves into the translicer to “ON”. • 12. Ensure that the chopped Romaine are delivered evenly into the flume tank without aggregation and clumping. • 13. Collect three untreated bags of Romaine Lettuce from each bin (1 top, 1 middle, and 1 bottom). • 14. Collect three treated bags of Romaine Lettuce at the end of F2 (1 beginning, 1 middle, and 1 end of the bin). • 15. Verify the pH, temperature, and the concentration of FE at the 1st flume tank (F1), 1st Reservoir (R1), 2nd Flume tank (F2), and the 2nd Reservoir (R2) before and after processing a bin. • 16. Place white totes at the bottom of the locations with water spill. Return the spilt water back into the flume tank as needed. • 17. Place white totes at the bottom outlets of the centrifuge to collect liquid that would be spin off from the leaves. Return the collected water back into the flume tank as needed. • 18. Repeat Steps ‘e’ to ‘o’ for the rest of the bins till the FE concentrations fall below the lowest processing limits. • 19. […]

[3] = 600 gallons wash water, whole run
[4] = cumulative diced Romaine added 0.0 lb
[5] = cumulative diced Romaine added 55.2 lb
[6] = cumulative diced Romaine added 114.9 lb
[7] = cumulative diced Romaine added 157.2 lb
[8] = cumulative diced Romaine added 207.7 lb
[9] = cumulative diced Romaine added 272.9 lb
[10] = cumulative diced Romaine added 325.8 lb
[11] = cumulative diced Romaine added 371.3 lb
[12] = cumulative diced Romaine added 424.7 lb
[13] = cumulative diced Romaine added 502.6 lb
[14] = cumulative diced Romaine added 565.0 lb
[15] = cumulative diced Romaine added 629.0 lb
[16] = cumulative diced Romaine added 697.1 lb
[17] = cumulative diced Romaine added 762.7 lb
[18] = cumulative diced Romaine added 826.6 lb
[19] = cumulative diced Romaine added 896.2 lb
[20] = cumulative diced Romaine added 949.9 lb

CC(=O)OO [Peroxyacetic acid, peroxyacetic acid]
Log Reduction, Aerobic Plate Counts [1]: 0.7 Log cfu/g
Aerobic Plate Counts after wash ([1]; untreated 3.4): 2.7 Log cfu/g
Amount of PA consumed [2, 3]: 11.7 ppm
Pounds of PA consumed [2, 3]: 0.01208 lb
Depletion of PA ([2]; 600 gallons wash water, no lactic acid): 0.000013 lb of PA per lb of Romaine
PA (ppm) [2, 4]: 84.8 ppm
Peroxide (ppm) [2, 4]: 7.5 ppm
PA (ppm) [2, 5]: 83.3 ppm
Peroxide (ppm) [2, 5]: 7.4 ppm
PA (ppm) [2, 6]: 82.7 ppm
Peroxide (ppm) [2, 6]: 7.4 ppm
PA (ppm) [2, 7]: 82.4 ppm
Peroxide (ppm) [2, 7]: 7.4 ppm
PA (ppm) [2, 8]: 82.0 ppm
Peroxide (ppm) [2, 8]: 7.4 ppm
PA (ppm) [2, 9]: 81.4 ppm
Peroxide (ppm) [2, 9]: 7.3 ppm
PA (ppm) [2, 10]: 81.0 ppm
Peroxide (ppm) [2, 10]: 7.3 ppm
PA (ppm) [2, 11]: 80.5 ppm
Peroxide (ppm) [2, 11]: 7.1 ppm
PA (ppm) [2, 12]: 79.6 ppm
Peroxide (ppm) [2, 12]: 6.9 ppm
PA (ppm) [2, 13]: 78.7 ppm
Peroxide (ppm) [2, 13]: 6.9 ppm
PA (ppm) [2, 14]: 78.4 ppm
Peroxide (ppm) [2, 14]: 6.9 ppm
PA (ppm) [2, 15]: 77.7 ppm
Peroxide (ppm) [2, 15]: 6.4 ppm
PA (ppm) [2, 16]: 76.1 ppm
Peroxide (ppm) [2, 16]: 6.4 ppm
PA (ppm) [2, 17]: 75.4 ppm
Peroxide (ppm) [2, 17]: 6.1 ppm
PA (ppm) [2, 18]: 74.7 ppm
Peroxide (ppm) [2, 18]: 6.0 ppm
PA (ppm) [2, 19]: 73.7 ppm
Peroxide (ppm) [2, 19]: 6.0 ppm
PA (ppm) [2, 20]: 73.1 ppm
Peroxide (ppm) [2, 20]: 6.0 ppm
